Assay results from patent US20030236223A1, “Metastasis modulating activity of highly sulfated oligosaccharides” (Greenville Hospital System, priority 2002, published 2003).

What was measured:
lung metastasis = test: Lung metastasis in tumorigenic mice treated via drinking water; format: in vivo; settings: C57B1-6 mice, 10 mg/ml in drinking water for two weeks, FIG. 2
Procedure: C57B1-6 mice (n=2) were treated with 10 mg/ml β-cyclodextrin tetradecasulfate in their drinking water for two weeks. The control animal (n=2) was given cyclodextrin-free drinking water.

[1] = system: murine B16 melanoma cells; test: B16 murine melanoma cell proliferation (Promega Cell Titer 96 AQueous assay); format: cell-based; settings: 48 hours incubation, 0-90 micrograms/ml, FIG. 1
Procedure: 5000 cells/well of murine B16 melanoma cells were plated in a 96-well plate and incubated for 48 hours with varying concentrations of cyclodextrin tetradecasulfate (0-90 micrograms/ml). Non-radioactive assay solution was prepared according to manufacturer's protocol (Promega Cell Titer 96 AQueous Assay Reagents). Cells were read using a Biorad benchmark microplate reader 2 hours after the assay solution was added to the well.

β-cyclodextrin tetradecasulfate
lung metastasis compared to the control animal (lung metastasis): ⅓ fewer lung metastasis | cell proliferation [1]: cell proliferation decreases
